According to publication PMC5341752, “New bipyridine gold(III) dithiocarbamate-containing complexes exerted a potent anticancer activity against cisplatin-resistant cancer cells independent of p53 status” (Oncotarget, 2016):
Values belong to the compound of their own block, whether it stands above or below them.

How the values were obtained:
tumor cells [1] = experiment: Cytochrome-c release, flow cytometry; type: cell-based, human; conditions: IC75, 24 h
tumor cells [2] = experiment: Cell cycle progression; type: cell-based; conditions: data not shown
[3] = system: A2780, A2780cis, MCF-7, PC3, L-540 cells; experiment: Caspase 3 activation, FLICA reagent, flow cytometry; type: cell-based, human; conditions: IC75, 0, 24 and 48 h
Description: (§1) PC3 (2.5 × 10^4), MCF-7 (5.0 × 10^4), A2780 and A2780cis (5.0 × 10^4), and L-540 cells (2.0 × 10^5/mL) were incubated in six-well plates with compound 1 (IC75) (Figure 1) for 72 h. Annexin-V binding (Becton-Dickinson [BD] Pharmingen, San Jose, CA) together with propidium iodide (PI) staining was detected in tumor cells by flow cytometry, as described. Caspase 3 and 9 activation was evaluated using the fluorochrome inhibitors of caspases (FLICA) Caspa-TagTM caspase-3/7 (FAM-DEVD-FMK) and caspase 9 (FAM-LETD) (Chemicon International, Milan, Italy). Briefly, cells were treated with compound 1 (IC75), then harvested, washed and resuspended in warmed complete medium supplemented with FLICA for 1 h and then immediately analyzed by flow cytometry. DNA fragmentation was assessed using the Apo-Direct kit (Becton-Dickinson Pharmigen, CA, USA) according to manufacturer's instructions. […] Red fluorescence was immediately analyzed by flow cytometry. Viable cells were identified according to their forward and right-angle scattering, electronically gated and analyzed on a FACScan flow cytometer (BD), using CellQuest software (BD). […] After 72 h, ROS formation and viable cells number were evaluated by flow cytometry and trypan blue dye exclusion assay, respectively. […]

[4] = Stability by UV-Vis spectra in DMSO over 24 hours at 37°C; type: physicochemical; conditions: DMSO solution
Description: Electronic spectra were recorded on each complex freshly prepared in DMSO solution at room temperature. Then, their electronic spectra were monitored over 24 hours at 37°C. The resulting UV-Vis absorption spectra of compound 1, 2 and 3 are shown in Supplementary Figure S4A–S4C.

tumor cells [5] = experiment: Mitochondrial ROS, MitoSox, flow cytometry; type: cell-based, human; conditions: IC75, 72 h
Description: as §1

L-540 cells = experiment: Growth inhibition, MTS assay, L-540 cells; type: cell-based, human; conditions: 72 h exposure; for IC50: mean ± SEM
Description: (§2) PC3 and MCF-7 cells (2.5 × 10^3), A2780, A2780cis (4.0 × 10^3), A2780CP-16 and lung cancer cells (H460, A549, H226, H838, H157, H1975, H2122, SKLU1 and H1299) were seeded in 96-well flat-bottomed microplates (100 μL) and incubated for 24 h (to allow cell adhesion) before drug testing. The medium was then removed and replaced with fresh medium containing the gold(III) complexes (compound 1–9) to be tested at increasing concentrations (from 0.01 to 100 μM) at 37°C for 72 h. Each treatment was performed in triplicate. Cell proliferation was assayed using the MTT assay. Alternatively, L-540 cells (2.0 × 10^5/mL) were seeded in 96-well plates and treated as previously described. After treatment, cell proliferation was evaluated by the MTS assay (Promega). IC50 (i.e., the half maximal inhibitory concentration representing the concentration of a substance required for 50% in vitro inhibition) IC75 and IC90 values (Supplementary Table S1) were calculated using the CalcuSyn software (Biosoft, Ferguson, MO, USA). Dependence of activity on p53 was assessed in A2780 cells following p53 knockdown by CRISPR [48].

A2780 cells = experiment: Growth inhibition, MTT assay, A2780 cells; type: cell-based, human; conditions: 72 h exposure; for IC50: mean ± SEM
Description: as §2

tumor cells [6] = experiment: Mitochondrial membrane permeabilization, CMXRos, flow cytometry; type: cell-based, human; conditions: IC75, 24 h
Description: as §1

[7] = system: human Mesenchymal stromal cells (MSCs); experiment: Proliferation of normal Mesenchymal stromal cells, MTT assay; type: cell-based; conditions: 72 h
Description: Bone Marrow (BM) derived human Mesenchymal Stromal Cells (MSCs) were from Lonza (Lonza, Verviers, Belgium). MSCs were maintained in MSGM bullet kit (Lonza) and experiments were performed in DMEM medium (Cambrex Bio Science, Milano, Italy) supplemented with 10% FCS. To evaluate effects of compound 1, MSCs (5.0 × 10^3) were seeded in 96-well flat-bottomed microplates (100 μL) and incubated for 24 h (to allow cell adhesion) before drug testing. The medium was then removed and replaced with fresh medium containing compound 1 to be tested at increasing concentrations (from 0.1 to 1 μM) at 37°C for 72 h. Each treatment was performed in triplicate. Cell proliferation was assayed using the MTT assay.

[8] = system: A2780, A2780cis, MCF-7, PC3, L-540 cells; experiment: DNA fragmentation, Apo-Direct, flow cytometry; type: cell-based, human; conditions: IC75, 72 h
Description: as §1

tumor cells [9] = experiment: Caspase 9 activation, FLICA reagent, flow cytometry; type: cell-based, human; conditions: IC75, 24 h
Description: as §1

MCF-7 cells = experiment: Growth inhibition, MTT assay, MCF-7 cells; type: cell-based, human; conditions: for IC50: mean ± SEM
Description: as §2

PC3 cells = experiment: Growth inhibition, MTT assay, PC3 cells; type: cell-based, human; conditions: 72 h exposure; for IC50: mean ± SEM
Description: as §2

A2780cis cells = experiment: Growth inhibition, MTT assay, cisplatin-resistant A2780cis cells; type: cell-based, human; conditions: for IC50: mean ± SEM; for Fold resistance A2780cis/A2780 ratio: ratio A2780cis IC50/A2780 IC50
Description: as §2

[10] = system: A2780, A2780cis, MCF-7, PC3, L-540 cells; experiment: Apoptosis, Annexin V/PI double staining, flow cytometry; type: cell-based, human; conditions: IC75, 72 h
Description: as §1

[11] = system: A2780 CRISPR Control cells (WT-p53); experiment: MTT assay in A2780 clone transfected with CRISPR control plasmid; type: cell-based, human; conditions: mean ± SEM
Description: as §2

[12] = system: A2780 CRISPR p53 KO cells; experiment: MTT assay in A2780 clone with p53 knocked out by CRISPR/Cas9; type: cell-based, human; conditions: mean ± SEM
Description: as §2

[13] = system: NSCLC cell lines (H460, A549, H226, H838, H157, H1975, H2122, SKLU1, H1299); experiment: Cytotoxicity in a panel of NSCLC cell lines, MTT assay; type: cell-based; conditions: all NSCLC cell lines
Description: as §2

2780CP cells = system: 2780CP cells; design: method as in PMID 10643661; conditions: 2780CP-16 versus A2780; cited from earlier work

Compound: CN(C)C1=[S+][Au-]2([S]1)[n+]1ccccc1-c1cccc[n+]12.[Cl-].[Cl-] [Compound 1, [Au(BPY)(DMTC)]Cl2]
cytochrome-c release from the mitochondria (tumor cells [1]): cytochrome-c (Cyt-c) release | cell cycle progression (tumor cells [2]): only slightly affected | caspase 3 activation [3]: induced a time-dependent activation of caspase 3 | stability by UV spectra [4]: confirm the stability under physiological temperature | mitochondrial ROS levels (tumor cells [5]): increased mitochondrial ROS levels | IC75 L-540 (L-540 cells): 3500 ± 320 nM | IC90 (L-540 cells): 4200 ± 390 nM | IC50 (L-540 cells): 2680 ± 240 nM | IC75 A2780 (A2780 cells): 450 ± 40 nM | IC90 (A2780 cells): 600 ± 50 nM | IC50 (A2780 cells): 180 ± 20 nM | mitochondrial membrane permeabilization (tumor cells [6]): promoted mitochondrial membrane permeabilization | IC50 [7]: 960 nM | DNA fragmentation (Apo-Direct) [8]: Apoptosis induction was confirmed by DNA fragmentation | caspase 9 activation (tumor cells [9]): induced activation of caspase 9 | IC75 MCF-7 (MCF-7 cells; 72 h exposure, MTT): 510 ± 50 nM | IC90 (MCF-7 cells; 72 h exposure, MTT): 740 ± 80 nM | IC50 (MCF-7 cells; 72 h exposure, MTT): 270 ± 20 nM | fold more active than cisplatin in inhibiting cell proliferation (MCF-7 cells; MCF-7 cells): ~80 fold | IC75 PC3 (PC3 cells): 730 ± 70 nM | IC90 (PC3 cells): 910 ± 110 nM | IC50 (PC3 cells): 420 ± 40 nM | IC75 A2780cis (A2780cis cells; 72 h exposure, MTT): 430 ± 40 nM | IC90 (A2780cis cells; 72 h exposure, MTT): 560 ± 60 nM | IC50 (A2780cis cells; 72 h exposure, MTT): 170 ± 10 nM | fold more active than cisplatin in inhibiting cell proliferation (A2780cis cells; A2780cis cells): about 60 fold | apoptosis (Annexin-V/PI) [10]: induced apoptosis in the cell lines tested

Compound: CCN(CC)C(=S)[S-].[Au+3].[Cl-].[Cl-].c1ccc(-c2ccccn2)nc1 [Compound 2, [Au(BPY)(DETC)]Cl2]
stability by UV spectra [4]: confirm the stability under physiological temperature | IC50 (L-540 cells): 2800 ± 250 nM | IC50 (A2780 cells): 240 ± 20 nM | IC50 (MCF-7 cells; 72 h exposure, MTT): 270 ± 20 nM | IC50 (PC3 cells): 700 ± 60 nM | IC50 (A2780cis cells; 72 h exposure, MTT): 180 ± 10 nM

Compound: S=C([S-])N(Cc1ccccc1)Cc1ccccc1.[Au+3].[Cl-].[Cl-].c1ccc(-c2ccccn2)nc1 [Compound 3, [Au(BPY)(DBTC)]Cl2]
stability by UV spectra [4]: confirm the stability under physiological temperature | IC50 (L-540 cells): 12000 ± 1080 nM | IC50 (A2780 cells): 4660 ± 130 nM | IC50 (MCF-7 cells; 72 h exposure, MTT): 23000 ± 2070 nM | IC50 [11]: 870 ± 110 nM | IC50 (PC3 cells): 11200 ± 1000 nM | IC50 (A2780cis cells; 72 h exposure, MTT): 14300 ± 1120 nM | Fold resistance A2780cis/A2780 ratio (A2780cis cells): 3.07 | IC50 [12]: 1130 ± 390 nM

Compound: Cc1ccc2[n+](c1)[Au-]1([S]C(N(C)C)=[S+]1)[n+]1cc(C)ccc1-2.[Cl-].[Cl-] [Compound 4, [Au(5,5′-Me2BPY)(DMTC)]Cl2]
IC50 (L-540 cells): 2700 ± 220 nM | IC50 (A2780 cells): 280 ± 30 nM | fold greater potency than compounds 3, 6 and 9 [13]: at least 10 fold | IC50 (MCF-7 cells; 72 h exposure, MTT): 280 ± 20 nM | IC50 [11]: 87 ± 3 nM | IC50 (PC3 cells): 590 ± 50 nM | IC50 (A2780cis cells; 72 h exposure, MTT): 170 ± 10 nM | IC50 [12]: 83 ± 3 nM

Compound: CCN(CC)C1=[S+][Au-]2([S]1)[n+]1cc(C)ccc1-c1ccc(C)c[n+]12.Cl.Cl [Compound 5, [Au(5,5′-Me2BPY)(DETC)]Cl2]
IC50 (L-540 cells): 2900 ± 260 nM | IC50 (A2780 cells): 590 ± 50 nM | IC50 (MCF-7 cells; 72 h exposure, MTT): 290 ± 30 nM | IC50 (PC3 cells): 860 ± 80 nM | IC50 (A2780cis cells; 72 h exposure, MTT): 230 ± 20 nM

Compound: Cc1ccc2[n+](c1)[Au-]1([S]C(N(Cc3ccccc3)Cc3ccccc3)=[S+]1)[n+]1cc(C)ccc1-2.[Cl-].[Cl-] [Compound 6, [Au(5,5′-Me2BPY)(DBTC)]Cl2]
IC50 (L-540 cells): 6500 ± 60 nM | IC50 (A2780 cells): 6350 ± 60 nM | IC50 (MCF-7 cells; 72 h exposure, MTT): 18000 ± 1620 nM | IC50 (PC3 cells): 11600 ± 1040 nM | IC50 (A2780cis cells; 72 h exposure, MTT): 15700 ± 1410 nM | Fold resistance A2780cis/A2780 ratio (A2780cis cells): 2.47

Compound: Cc1cccc2[n+]1[Au-]1([S]C(N(C)C)=[S+]1)[n+]1c(C)cccc1-2.[Cl-].[Cl-] [Compound 7, [Au(6,6′-Me2BPY)(DMTC)]Cl2]
IC50 (L-540 cells): 3600 ± 320 nM | IC50 (A2780 cells): 270 ± 20 nM | fold greater potency than compounds 3, 6 and 9 [13]: at least 10 fold | IC50 (MCF-7 cells; 72 h exposure, MTT): 350 ± 30 nM | IC50 (PC3 cells): 770 ± 70 nM | IC50 (A2780cis cells; 72 h exposure, MTT): 230 ± 20 nM

Compound: CCN(CC)C1=[S+][Au-]2([S]1)[n+]1c(C)cccc1-c1cccc(C)[n+]12.Cl.Cl [Compound 8, [Au(6,6′-Me2BPY)(DETC)]Cl2]
IC50 (L-540 cells): 6200 ± 560 nM | IC50 (A2780 cells): 730 ± 60 nM | IC50 (MCF-7 cells; 72 h exposure, MTT): 470 ± 40 nM | IC50 (PC3 cells): 1600 ± 140 nM | IC50 (A2780cis cells; 72 h exposure, MTT): 450 ± 30 nM

Compound: Cc1cccc2[n+]1[Au-]1([S]C(N(Cc3ccccc3)Cc3ccccc3)=[S+]1)[n+]1c(C)cccc1-2.[Cl-].[Cl-] [Compound 9, [Au(6,6′-Me2BPY)(DBTC)]Cl2]
IC50 (L-540 cells): 35800 ± 3220 nM | IC50 (A2780 cells): 6700 ± 600 nM | IC50 (MCF-7 cells; 72 h exposure, MTT): 31000 ± 2790 nM | IC50 (PC3 cells): 11500 ± 1030 nM | IC50 (A2780cis cells; 72 h exposure, MTT): 16000 ± 1440 nM | Fold resistance A2780cis/A2780 ratio (A2780cis cells): 2.39

IC50 (A2780 cells): 1500 ± 100 nM | IC50 (MCF-7 cells; 72 h exposure, MTT): 22200 ± 200 nM | IC50 (PC3 cells): 3300 ± 300 nM | IC50 (A2780cis cells; 72 h exposure, MTT): 10400 ± 900 nM
Compound: cis-[Pt(NH3)2Cl2] [Cisplatin]
IC50 (L-540 cells): 2500 ± 100 nM | fold cisplatin resistance of 2780CP cells (2780CP cells): 20 fold | Fold resistance A2780cis/A2780 ratio (A2780cis cells): 6.93 | Fold resistance A2780cis/A2780 ratio (A2780cis cells; listed as cisplatin): about 7
